Measurements as given in US5863950A, “HIV protease inhibitors” (Agouron Pharmaceuticals, Inc., priority 1994, dated 1999).
≈ marks a conversion by molar mass, not a printed value. Read-outs that look alike come from different tables or passages of the source.

Columns and labels:
[1] = test system: HIV-1 (MT-2 cells); test: Anti-HIV MTT assay, inhibition of HIV-induced cell killing, MT-2 cells; assay type: cell-based, HIV-1 isolates IIIB and/or RF; conditions: Human immunodeficiency virus 1, MT2, 144 h; MT-2 cells (second position), 6 days, 37° C., MTT; read-out: Viral MT-2
Source text: (§1) SRI has an established program for the primary antiviral analysis of compounds in microtiter assays which measure the ability of a selected compound to inhibit HIV-induced cell killing. This assay involves the conversion of the tetrazolium dye MTT to a colored formazan product by mitochondrial enzymes in metabolically active cells. This assay system is presently used at SRI to screen over 30,000 compounds per year. Briefly, the assay involves the infection of CEM or MT2 cells in round bottom 96-well plates. The compound of interest is added just prior to infection. Following 6 days of incubation at 37° C. the plates are stained with MTT. The results of the assay are quantitated spectrophotometrically on a Molecular Devices Vmax plate reader. The data is analyzed by linear regression utilizing an in-house software program to calculate antiviral activity. (IC25, IC50, IC95) and toxicity (TC25, TC50, TC95) as well as other values.
(§2) Primary antiviral assays are routinely performed in CEM or MT-2 cells.
(§3) Drugs will be solubilized in the appropriate vehicle such as distilled water or DMSO if necessary. Latex gloves, lab coats and masks are used during all phases of the handling process to prevent exposure to potentially harmful agents. The drug is prepared at the appropriate concentration and stored at -20° C. until used by the screening laboratory. The first dilution of each compound is made in a dilution tube with medium to yield a concentration two-fold that of the highest test concentration. Sterile titer tubes are then used to make serial one half-log dilutions of each compound. Following drug dilution, the diluted compound is added to the appropriate well of a 96-well microtiter plate. Up to 12 dilutions can be assayed conveniently in triplicate on a single plate with all appropriate controls including cell control, virus control, toxicity control, drug color control, medium control and plastic (background) control. When testing includes only six dilutions, two drugs can be assayed on a single microtiter plate. The drugs are added to the plate in a final volume of 100 microliters.
(§4) During the time the drug dilutions are prepared, cells are washed and counted. Viability is monitored by trypan blue dye exclusion and assays are not performed if the viability falls below 90%. Cells are maintained in an exponential growth phase and are split 1:2 on the day prior to assay to assure exponential growth rate.
(§5) For the primary screen, the cell lines utilized are CEM and MT-2. Unless otherwise indicated, the medium used is RPMI 1640 with 10% heat-inactivated fetal calf serum (FBS), glutamine and antibiotics.
(§6) Cells are propagated at 37° C. in an atmosphere of 5% CO2 in air. The virus employed for this work is HIV-1 isolates IIIB and/or RF, which are prepared by an acute infection process.
(§7) Briefly, virus-infected cells are pelleted on a daily basis beginning at three days post-infection until the virus has killed all of the cells in the culture. Reverse transcriptase activity and p24 ELISA are used to identify pools with the greatest amount of virus.
(§8) These 24-hour harvests are pooled, filtered and frozen at -90° C. Prior to use in the assay, the infectious pool of virus is titered on all available cell lines in order to determine the amount of virus required in the antiviral assay.
(§9) In general, pools produced by the acute infection method require the addition of one microliter of infectious virus per well resulting in the screening of drugs at a multiplicity of infection of 0.01. In this manner enough virus is prepared and frozen to complete over one thousand microtiter plates, allowing the testing of up to two thousand compounds from a single stock of infectious virus. The use of a single stock of virus for a long period of testing has very favorable effects on the repeatability of the assay systems.
(§10) Virus infection of the CEM and MT-2 cells for the antiviral assay is carried out in a bulk infection process. […]

[2] = target: T1, HIV-1 protease (Human immunodeficiency virus type 1 group M subtype B, UniProt P04585); test: biochemical; assay type: biochemical
T1 construct: purified HIV-1 protease
Experimental: 1. Proteolytic activity of purified HIV-1 protease was routinely measured using the chromogenic assay developed by Richards et al. (J. Biol. Chem. 265: 7733 (1990)). Synthetic peptide His-Lys-Ala-Arg-Val-Leu-Phe (pNO2)-Glu-Ala-Nle-Ser-NH2 (American Peptide Company) was used as the substrate.
2. The assay was carried out in 0.5M NaCl, 50 mM MES pH 5.6, 2% DMSO (dimethylsulfoxide) at 37° C. Cleavage of the scissile bond between leucine and paranitro-phenylalanine (Phe(pNO2)) was assayed by spectrophotometric monitoring of the decrease in absorbance at 305 nm. Initial velocity was determined as the rate of decline of absorbance during the first 100 seconds of reaction.
3. […] Between 15-25 concentrations of inhibitor were added and velocity of reaction was measured at each of the concentrations, as described above.
4. Inhibition constants were calculated using the method of Jackson et al. (Adv. in Enzyme Regulation 22: 187 (1984)).

[3] = test system: HIV-1 (CEM cells); test: Anti-HIV MTT assay, inhibition of HIV-induced cell killing, CEM cells; assay type: cell-based, HIV-1 isolates IIIB and/or RF; conditions: Human immunodeficiency virus 1, CCRF-CEM, 144 h, CEM cell line (first position), 6 days, 37° C., read-out: Viral CEM
Source text: as §1, §2, §3, §4, §5, §6, §7, §8, §9, §10

[4] = 0.5M NaCl, 50 mM MES pH 5.6, 2% DMSO, 37° C., 200 μM substrate

Structure (SMILES) | IC50 [1] [µg/mL] | IC50 [2, 4] [nM] | Ki [2, 4] [nM] | IC50 [3] [µg/mL] | IC50 [2] [nM] | Ki [2] [nM]
CCC1(N(CC2COC(C)(C)OC2)C(=O)c2ccccc2CCC(O)Cc2ccc(C)cc2C(=O)N(CC2COC(C)(C)OC2)C(C)(C)c2ccccc2)CCCC1 (stereo not shown) [Example 106] | 1.7 (≈ 2.13 µM) | 67 | 3.9 | 3.91 (≈ 4.91 µM) |  | 
Cc1ccc(CC(O)CCc2ccccc2C(=O)N(CCO)C(C)(C)c2ccccc2)c(C(=O)N(CCO)C(C)(C)c2ccccc2)c1 (stereo not shown) [Example 80] | 0.68 (≈ 1.04 µM) | 89 | 12 | 0.53 (≈ 0.814 µM) |  | 
CC(C)(C)N(CCO)C(=O)c1ccccc1CCC(O)Cc1ccccc1C(=O)N(CCO)C(C)(C)C (stereo not shown) [Example 1] | 23 (≈ 44.9 µM) |  |  | 18.6 (≈ 36.3 µM) | 1030 | 835
CCC1(N(CCO)C(=O)c2ccccc2CC[C@@H](O)Cc2ccc(C)cc2C(=O)N(CCO)C(C)(C)c2ccccc2)CCCC1 [Example 112] | 1.47 (≈ 2.34 µM) |  |  | 0.54 (≈ 0.859 µM) |  | 
CCC1(N(CCOC(C)=O)C(=O)c2ccccc2CCC(O)Cc2ccc(C)cc2C(=O)N(CCOC(C)=O)C(C)(C)c2ccccc2)CCCC1 (stereo not shown) [Example 110] | 1.72 (≈ 2.41 µM) | 68 | 5.4 | 0.69 (≈ 0.968 µM) |  | 
CCC1(N(CCO)C(=O)c2ccccc2CCC(O)Cc2ccc(C)cc2C(=O)N(CCO)C(C)(C)c2ccc(O)cc2)CCCC1 (stereo not shown) [Example 96] | 1.18 (≈ 1.83 µM) |  |  | 0.57 (≈ 0.884 µM) | 63 | 4
CCC1(N(CCO)C(=O)c2ccccc2CCC(O)Cc2ccc(C)cc2C(=O)N(CC2CCCO2)C(C)(C)c2ccccc2)CCCC1 (stereo not shown) [Example 115] | 6.34 (≈ 9.48 µM) | 290 | 17 | 4.16 (≈ 6.22 µM) |  | 
CCC1(N(CCO)C(=O)c2ccccc2CCC(O)Cc2ccccc2C(=O)N(CCO)C23CCCCC2CCCC3)CCCC1 (stereo not shown) [Example 97] | > 10 | 225 | 38 | 1.58 (≈ 2.5 µM) |  | 
CCC1(N(CCO)C(=O)c2ccccc2CCC(O)Cc2ccc(Cl)cc2C(=O)N(CCO)C(C)(C)c2ccccc2)CCCC1 (stereo not shown) [Example 105] | 0.49 (≈ 0.755 µM) | 86 | 1 | 0.47 (≈ 0.724 µM) |  | 
Cc1ccc(CCC(O)Cc2ccccc2C(=O)N(CCO)C(C)(C)c2ccccc2)c(C(=O)N(CCO)C(C)(C)C)c1 (stereo not shown) [Example 62] | 4.98 (≈ 8.46 µM) | 169 | 152 | 2.86 (≈ 4.86 µM) |  | 
CC(C)(C)N(CCO)C(=O)c1ccccc1CCC(O)Cc1ccccc1C(=O)N(CCO)C1(C)CCCC1 (stereo not shown) [Example 5] | 32 (≈ 59.4 µM) | 950 | 840 | 17.4 (≈ 32.3 µM) |  | 
CCCC(CC)(CC)N(CCO)C(=O)c1ccccc1CC(O)CCc1ccccc1C(=O)N(CCO)C(C)(C)C (stereo not shown) [Example 92] | 5.06 (≈ 8.9 µM) | 183 | 88 | 2.12 (≈ 3.73 µM) |  | 
CCC1(N(CCO)C(=O)c2ccccc2CCC(O)Cc2ccccc2C(=O)N(CCO)C(C)(C)c2ccccc2)CCCC1 (stereo not shown) [Example 82] | 0.64 (≈ 1.04 µM) | 104 | 17 | 0.75 (≈ 1.22 µM) |  | 
CC(C)(C)N(CCO)C(=O)c1ccccc1CCC(O)Cc1ccccc1C(=O)N(CCO)C(C)(C)c1ccc2ccccc2c1 (stereo not shown) [Example 66] | 12.7 (≈ 20.3 µM) | 250 | 145 | 4.53 (≈ 7.25 µM) |  | 
CCC1(N(CCO)C(=O)c2ccccc2CCC(O)Cc2ccc(C)cc2C(=O)N(CCO)C2(c3ccccc3)CCCC2)CCCC1 (stereo not shown) [Example 94] | 1.47 (≈ 2.24 µM) | 141 | 0.55 | 0.52 (≈ 0.794 µM) |  | 
